Measurements taken from patent US5140009A (Tap Pharmaceuticals, Inc., priority 1990, dated 1992).
Numbered stars: 1 amine (or outer) side, 2 acyl side, 3 side chain; on linkers, the order of the positions; unused ones are H or OH. Square brackets hold non-standard residues; d marks the D form. Peptide text beside a SMILES is read from it. * marks the point of attachment. Propanoyl(3-(4-F-phenyl)) = O=C(CCc1ccc(F)cc1)*; Propanoyl(3-(4-Cl-Ph)) = O=C(CCc1ccc(Cl)cc1)*; X10 = O=C([C@@H](Cc1cncs1)N[*:1])[*:2]; d1Nal = N[C@H](Cc1cccc2ccccc12)C(=O)O; d2Nal = N[C@H](Cc1ccc2ccccc2c1)C(=O)O; dLys(iPr) = CC(C)NCCCC[C@@H](N)C(=O)O; Lys(iPr) = CC(C)NCCCC[C@H](N)C(=O)O; NMeY = CN[C@@H](Cc1ccc(O)cc1)C(=O)O; dBta = N[C@H](Cc1csc2ccccc12)C(=O)O; Pyrazinecarbonyl = O=C(c1cnccn1)*; NMeF = CN[C@@H](Cc1ccccc1)C(=O)O; d3Pal = N[C@H](Cc1cccnc1)C(=O)O; NMeL = CN[C@@H](CC(C)C)C(=O)O; Nicotinoyl = O=C(c1cccnc1)*; dOrn = NCCC[C@@H](N)C(=O)O; Bn = c1ccc(C*)cc1

Molecular target: T1, LHRH receptors (Rattus norvegicus, UniProt P30969)
T1 construct: Pituitary membranes containing LHRH receptors are prepared in batches from quick-frozen rat pituitaries; tissue Hilltop Labs; host or cells: rat pituitary membranes
T1 sequence (P30969 1-327): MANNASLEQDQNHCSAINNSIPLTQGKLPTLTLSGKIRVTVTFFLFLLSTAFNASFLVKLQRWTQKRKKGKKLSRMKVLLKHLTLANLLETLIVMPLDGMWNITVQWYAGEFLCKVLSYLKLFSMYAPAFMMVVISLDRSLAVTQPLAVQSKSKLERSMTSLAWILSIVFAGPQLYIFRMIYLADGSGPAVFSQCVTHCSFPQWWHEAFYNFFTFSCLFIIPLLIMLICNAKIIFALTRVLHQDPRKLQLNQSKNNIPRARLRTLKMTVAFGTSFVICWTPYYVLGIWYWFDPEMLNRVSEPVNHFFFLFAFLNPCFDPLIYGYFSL
Assay: Receptor Binding (radioligand receptor binding assay)
Details: table 4; rat pituitary membranes, radioligand 50 pM, 2 hours at 4° C.; read-out: Receptor Binding pkI (converted)

CC(C)C[C@H](NC(=O)[C@@H](CCCCNC(=O)c1cccnc1)NC(=O)[C@H](Cc1ccc(O)cc1)N(C)C(=O)[C@H](CO)NC(=O)[C@@H](Cc1ccc2ccccc2c1)NC(=O)CCc1ccc(F)cc1)C(=O)N[C@@H](CCCNC(=N)N)C(=O)N1CCC[C@H]1C(=O)N[C@H](C)C(N)=O [Compound 187, (3-10)[N-(3-(4-Fluorophenyl)propionyl)-D-2-Nal^3 -NMeTyr^5 -D-Lys^6 (N-epsilon-nicotinyl)-D-Ala^10]LHRH] ({Propanoyl(3-(4-F-phenyl))}-[d2Nal]S[NMeY][dK](Nicotinoyl)LRP[dA]-NH2)
Ki: 22.4 pM

COc1ccc(C[C@H](NC(=O)[C@H](CO)NC(=O)[C@@H](Cc2cccc3ccccc23)NC(=O)CCc2ccc(F)cc2)C(=O)N[C@H](CCCCN)C(=O)N[C@@H](CC(C)C)C(=O)N[C@@H](CCCNC(=N)N)C(=O)N2CCC[C@H]2C(=O)N[C@H](C)C(N)=O)cc1 [Compound 188, (3-10)[N-(3-(4-Fluorophenyl)propionyl)-D-1-Nal^3 -Tyr^5 (OMe)-D-Lys^6 -D-Ala^10]LHRH] ({Propanoyl(3-(4-F-phenyl))}-[d1Nal]SY(Me)[dK]LRP[dA]-NH2)
Ki: 3.31 pM

CC(C)C[C@H](NC(=O)[C@@H](CCCCN)NC(=O)[C@H](Cc1ccccc1)N(C)C(=O)[C@H](CO)NC(=O)[C@@H](Cc1cccc2ccccc12)NC(=O)CCc1ccc(F)cc1)C(=O)N[C@@H](CCCNC(=N)N)C(=O)N1CCC[C@H]1C(=O)N[C@H](C)C(N)=O [Compound 189, (3-10)[N-(3-(4-Fluorophenyl)propionyl)-D-1-Nal^3 -NMePhe^5 -D-Lys^6 -D-Ala^10]LHRH] ({Propanoyl(3-(4-F-phenyl))}-[d1Nal]S[NMeF][dK]LRP[dA]-NH2)
Ki: 5.5 pM

CC(C)C[C@@H](C(=O)N[C@@H](CCCNC(=N)N)C(=O)N1CCC[C@H]1C(=O)N[C@H](C)C(N)=O)N(C)C(=O)[C@@H](CCCCN)NC(=O)[C@H](Cc1ccc(O)cc1)N(C)C(=O)[C@H](CO)NC(=O)[C@@H](Cc1cccc2ccccc12)NC(=O)CCc1ccc(F)cc1 [Compound 190, (3-10)[N-(3-(4-Fluorophenyl)propionyl)-D-1-Nal^3 -NMeTyr^5 -D-Lys^6 -NMeLeu^7 -D-Ala^10]LHRH] ({Propanoyl(3-(4-F-phenyl))}-[d1Nal]S[NMeY][dK][NMeL]RP[dA]-NH2)
Ki: 15.8 pM

CC(C)C[C@H](NC(=O)[C@@H](CCCCNC(=O)c1cccnc1)NC(=O)[C@H](CCCCNC(=O)c1cccnc1)NC(=O)[C@H](CO)NC(=O)[C@@H](Cc1cccc2ccccc12)NC(=O)CCc1ccc(F)cc1)C(=O)N[C@@H](CCCNC(=N)N)C(=O)N1CCC[C@H]1C(=O)N[C@H](C)C(N)=O [Compound 191] ({Propanoyl(3-(4-F-phenyl))}-[d1Nal]SK(Nicotinoyl)[dK](Nicotinoyl)LRP[dA]-NH2)
Ki: 9.55 pM

CC(C)C[C@H](NC(=O)[C@@H](CCCN)NC(=O)[C@H](Cc1ccc(O)cc1)N(C)C(=O)[C@H](CO)NC(=O)[C@@H](Cc1cccc2ccccc12)NC(=O)CCc1ccc(F)cc1)C(=O)N[C@@H](CCCNC(=N)N)C(=O)N1CCC[C@H]1C(=O)N[C@H](C)C(N)=O [Compound 192, (3-10)[N-(3-(4-Fluorophenyl)propionyl)-D-1-Nal^3 -NMeTyr^5 -D-Orn^6 -D-Ala^10]LHRH] ({Propanoyl(3-(4-F-phenyl))}-[d1Nal]S[NMeY][dOrn]LRP[dA]-NH2)
Ki: 6.76 pM

CC(C)C[C@H](NC(=O)[C@@H](CCCCNC(=O)c1cccnc1)NC(=O)[C@H](Cc1ccc(O)cc1)N(C)C(=O)[C@H](CO)NC(=O)[C@@H](Cc1cccnc1)NC(=O)CCc1ccc(Cl)cc1)C(=O)N[C@@H](CCCCNC(C)C)C(=O)N1CCC[C@H]1C(=O)N[C@H](C)C(N)=O [Compound 194, (3-10)[N-(3-(4-Chlorophenyl)propionyl)-D-3-Pal^3 -NMeTyr^5 -D-Lys^6 (N-epsilon-nicotinyl)-Lys^8 (N-epsilon-isopropyl)-D-Ala^10]LHRH] ({Propanoyl(3-(4-Cl-Ph))}-[d3Pal]S[NMeY][dK](Nicotinoyl)L[Lys(iPr)]P[dA]-NH2)
Ki: 191 pM

CC(C)C[C@H](NC(=O)[C@@H](Cc1ccc(O)cc1)NC(=O)[C@H](Cc1ccc(O)cc1)N(C)C(=O)[C@H](CO)NC(=O)[C@@H](Cc1c[nH]c2ccccc12)NC(=O)CCc1ccc(F)cc1)C(=O)N[C@@H](CCCCNC(C)C)C(=O)N1CCC[C@H]1C(=O)N[C@H](C)C(N)=O [Compound 196, (3-10)[N-(3-(4-Fluorophenyl)propionyl)-D-Trp^3 -NMeTyr^5 -D-Tyr^6 -Lys^8 (N-epsilon-isopropyl)-D-Ala^10]LHRH] ({Propanoyl(3-(4-F-phenyl))}-[dW]S[NMeY][dY]L[Lys(iPr)]P[dA]-NH2)
Ki: 23.4 pM

CC(C)C[C@H](NC(=O)[C@@H](CCCCNC(C)C)NC(=O)[C@H](Cc1ccc(O)cc1)N(C)C(=O)[C@H](CO)NC(=O)[C@@H](Cc1csc2ccccc12)NC(=O)CCc1ccc(F)cc1)C(=O)N[C@@H](CCCNC(=N)N)C(=O)N1CCC[C@H]1C(=O)N[C@H](C)C(N)=O [Compound 198, (3-10)[N-(3-(4-Fluorophenyl)propionyl)-D-3-Bal^3 -NMeTyr^5 -D-Lys^6 (N-epsilon-isopropyl)-D-Ala^10]LHRH] ({Propanoyl(3-(4-F-phenyl))}-[dBta]S[NMeY][dLys(iPr)]LRP[dA]-NH2)
Ki: 9.33 pM

CC(C)C[C@H](NC(=O)[C@@H](CCCCN)NC(=O)[C@H](Cc1ccc(O)cc1)N(C)C(=O)[C@H](CO)NC(=O)[C@@H](Cc1cccc2ccccc12)NC(=O)CCc1ccc(F)cc1)C(=O)N[C@@H](CCCCNC(C)C)C(=O)N1CCC[C@H]1C(=O)N[C@H](C)C(N)=O [Compound 199, (3-10)[N-(3-(4-Fluorophenyl)propionyl)-D-1-Nal^3 -NMeTyr^5 -D-Lys^6 -Lys^8 (N-epsilon-isopropyl)-D-Ala^10]LHRH] ({Propanoyl(3-(4-F-phenyl))}-[d1Nal]S[NMeY][dK]L[Lys(iPr)]P[dA]-NH2)
Ki: 8.32 pM

COc1ccc(C[C@H](NC(=O)[C@H](CO)NC(=O)[C@@H](Cc2cccc3ccccc23)NC(=O)CCc2ccc(F)cc2)C(=O)N[C@H](CCCCNC(=O)c2cccnc2)C(=O)N[C@@H](CC(C)C)C(=O)N[C@@H](CCCCNC(C)C)C(=O)N2CCC[C@H]2C(=O)N[C@H](C)C(N)=O)cc1 [Compound 200, (3-10)[N-(3-(4-Fluorophenyl)propionyl)-D-1-Nal^3 -Tyr^5 (OMe)-D-Lys^6 (N-epsilon-nicotinyl)-Lys^8 (N-epsilon-isopropyl)-D-Ala^10]LHRH] ({Propanoyl(3-(4-F-phenyl))}-[d1Nal]SY(Me)[dK](Nicotinoyl)L[Lys(iPr)]P[dA]-NH2)
Ki: 4.37 pM

CC(C)C[C@H](NC(=O)[C@@H](Cc1cccnc1)NC(=O)[C@H](Cc1ccc(O)cc1)NC(=O)[C@H](CO)NC(=O)[C@@H](Cc1cccc2ccccc12)NC(=O)CCc1ccc(F)cc1)C(=O)N[C@@H](CCCCNC(C)C)C(=O)N1CCC[C@H]1C(=O)N[C@H](C)C(N)=O [Compound 201, (3-10)[N-(3-(4-Fluorophenyl)propionyl)-D-1-Nal^3 -D-3Pal^6 -Lys^8 (N-epsilon-isopropyl)-D-Ala^10]LHRH] ({Propanoyl(3-(4-F-phenyl))}-[d1Nal]SY[d3Pal]L[Lys(iPr)]P[dA]-NH2)
Ki: 20.4 pM

CC(C)C[C@H](NC(=O)[C@@H](Cc1cccnc1)NC(=O)[C@H](Cc1ccc(O)cc1)NC(=O)[C@H](COCc1ccccc1)NC(=O)[C@@H](Cc1cccc2ccccc12)NC(=O)CCc1ccc(F)cc1)C(=O)N[C@@H](CCCCNC(C)C)C(=O)N1CCC[C@H]1C(=O)N[C@H](C)C(N)=O [Compound 202, (3-10)[N-(3-(4-Fluorophenyl)propionyl)-D-1-Nal^3 -Ser^4 (O-Bzl)-D-3-Pal^6 -Lys^8 (N-epsilon-isopropyl)-D-Ala^10]LHRH] ({Propanoyl(3-(4-F-phenyl))}-[d1Nal]S(Bn)Y[d3Pal]L[Lys(iPr)]P[dA]-NH2)
Ki: 138 pM

COc1ccc(C[C@H](NC(=O)[C@H](CO)NC(=O)[C@@H](Cc2cccc3ccccc23)NC(=O)CCc2ccc(F)cc2)C(=O)N[C@H](CCCCNC(=O)c2cnccn2)C(=O)N[C@@H](CC(C)C)C(=O)N[C@@H](CCCCNC(C)C)C(=O)N2CCC[C@H]2C(=O)N[C@H](C)C(N)=O)cc1 [Compound 203, (3-10)[N-(3-(4-Fluorophenyl)propionyl)-D-1-Nal^3 -Tyr^5 (OMe)-D-Lys^6 (N-epsilon-2-carbonylpyrazinyl)-Lys^8 (N-epsilon-isopropyl)-D-Ala^10]LHRH] ({Propanoyl(3-(4-F-phenyl))}-[d1Nal]SY(Me)[dK](Pyrazinecarbonyl)L[Lys(iPr)]P[dA]-NH2)
Ki: 20.9 pM

CC(C)C[C@H](NC(=O)[C@@H](Cc1cncs1)NC(=O)[C@H](Cc1ccc(O)cc1)N(C)C(=O)[C@H](CO)NC(=O)[C@@H](Cc1cccc2ccccc12)NC(=O)CCc1ccc(F)cc1)C(=O)N[C@@H](CCCCNC(C)C)C(=O)N1CCC[C@H]1C(=O)N[C@H](C)C(N)=O [Compound 204, (3-10)[N-(3-(4-Fluorophenyl)propionyl)-D-1-Nal^3 -NMeTyr^5 -D-Thiaz6-Lys^8 (N-epsilon-isopropyl)-D-Ala^10]LHRH] ({Propanoyl(3-(4-F-phenyl))}-[d1Nal]S[NMeY][X10]L[Lys(iPr)]P[dA]-NH2)
Ki: 21.4 pM

CC(C)C[C@H](NC(=O)[C@@H](CCCCNC(=O)c1cccnc1)NC(=O)[C@H](Cc1ccccc1)N(C)C(=O)[C@H](CO)NC(=O)[C@@H](Cc1cccc2ccccc12)NC(=O)CCc1ccc(F)cc1)C(=O)N[C@@H](CCCCNC(C)C)C(=O)N1CCC[C@H]1C(=O)N[C@H](C)C(N)=O [Compound 205, (3-10)[N-(3-(4-Fluorophenyl)propionyl)-D-1-Nal^3 -NMePhe^5 -D-Lys^6 (N-epsilon-nicotinyl)-D-Ala^10]LHRH] ({Propanoyl(3-(4-F-phenyl))}-[d1Nal]S[NMeF][dK](Nicotinoyl)L[Lys(iPr)]P[dA]-NH2)
Ki: 30.2 pM
